Measured values from ChEMBL document CHEMBL1201862, “PubChem BioAssay data set” (2004).
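96-well plates; 48 h exposure; 5 concentrations. Endpoints by linear interpolation between flanking doses. Not reached: highest tested concentration assigned. GI50 marks 50% less growth.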 Active and inactive are the calls of the source. Rule as the data show it: active = GI50 up to about 1.1 µM and inactive = higher.

Tests used:
Assay in all cases: NCI-60 cell line screen, 48 h
UACC-257 = tested on: UACC-257
SF-268 = tested on: SF-268
SNB-75 = tested on: SNB-75
SF-539 = tested on: SF-539
OVCAR-3 = tested on: OVCAR-3
HCT-15 = tested on: HCT-15
SW-620 = tested on: SW-620
KM12 = tested on: KM12
HL-60 = tested on: HL-60
TK-10 = tested on: TK-10
MDA-N = tested on: MDA-N
OVCAR-8 = tested on: OVCAR-8
K562 = tested on: K562
A549 = tested on: A549
NCI-H226 = tested on: NCI-H226
RXF 393 = tested on: RXF 393
OVCAR-4 = tested on: OVCAR-4
SK-MEL-5 = tested on: SK-MEL-5
HCC 2998 = tested on: HCC 2998
HCT-116 = tested on: HCT-116
COLO 205 = tested on: COLO 205
ACHN = tested on: ACHN
SNB-19 = tested on: SNB-19
MCF7 = tested on: MCF7
HOP-62 = tested on: HOP-62
UO-31 = tested on: UO-31
HOP-92 = tested on: HOP-92
NCI-H460 = tested on: NCI-H460
CCRF-CEM = tested on: CCRF-CEM
Hs-578T = tested on: Hs-578T
RPMI-8226 = tested on: RPMI-8226
UACC-62 = tested on: UACC-62
IGROV-1 = tested on: IGROV-1
NCI-H23 = tested on: NCI-H23
MDA-MB-435 = tested on: MDA-MB-435
SK-MEL-2 = tested on: SK-MEL-2
SF-295 = tested on: SF-295
Malme-3M = tested on: Malme-3M
HT-29 = tested on: HT-29
OVCAR-5 = tested on: OVCAR-5
786-0 = tested on: 786-0
BT-549 = tested on: BT-549
CAKI-1 = tested on: CAKI-1
M14 = tested on: M14
SK-MEL-28 = tested on: SK-MEL-28
NCI/ADR-RES = tested on: NCI/ADR-RES
SK-OV-3 = tested on: SK-OV-3
NCI-H522 = tested on: NCI-H522
U-251 = tested on: U-251
DU-145 = tested on: DU-145
SR = tested on: SR
LOX IMVI = tested on: LOX IMVI
SN12C = tested on: SN12C
PC-3 = tested on: PC-3
EKVX = tested on: EKVX
T47D = tested on: T47D
MDA-MB-231 = tested on: MDA-MB-231
A498 = tested on: A498
MOLT-4 = tested on: MOLT-4

With `COc1ccc2nc(NC(=O)/C(C#N)=C/c3ccccc3)sc2c1` the GI50 (UACC-257) was 27 µM (inactive), the GI50 (SF-268) was > 56.5 µM (inactive) and the GI50 (SNB-75) was > 45.7 µM (inactive). The GI50 (SF-539) was 27.7 µM (inactive), the GI50 (OVCAR-3) was 18.4 µM (inactive) and the GI50 (HCT-15) was 24.7 µM. The GI50 (SW-620) was 46.9 µM (inactive), the GI50 (KM12) was > 41.7 µM (inactive) and the GI50 (HL-60) was 9.35 µM (inactive). For the same compound, the GI50 (TK-10) was 26.4 µM (inactive), the GI50 (MDA-N) was 34.8 µM (inactive) and the GI50 (OVCAR-8) was > 51.6 µM (inactive). The GI50 (K562) was 23.5 µM (inactive), the GI50 (A549) was 59.4 µM (inactive) and the GI50 (NCI-H226) was > 58.2 µM (inactive). The GI50 (RXF 393) was > 61.4 µM (inactive), the GI50 (OVCAR-4) was 37.6 µM (inactive) and the GI50 (SK-MEL-5) was 20.8 µM (inactive). The GI50 (HCC 2998) was 44.3 µM (inactive), the GI50 (HCT-116) was 24.7 µM (inactive) and the GI50 (COLO 205) was 48.3 µM (inactive). For the same compound, the GI50 (ACHN) was 35.6 µM (inactive), the GI50 (SNB-19) was > 100 µM (inactive) and the GI50 (MCF7) was 36.2 µM (inactive). The GI50 (HOP-62) was > 64.1 µM (inactive), the GI50 (UO-31) was 36.8 µM (inactive) and the GI50 (HOP-92) was 32.7 µM (inactive). For the same compound, the GI50 (NCI-H460) was 38 µM (inactive), the GI50 (CCRF-CEM) was 14.1 µM (inactive) and the GI50 (Hs-578T) was > 48.5 µM (inactive). The GI50 (RPMI-8226) was 23.4 µM (inactive), the GI50 (UACC-62) was 23.1 µM (inactive) and the GI50 (IGROV-1) was 29.4 µM (inactive). For the same compound, the GI50 (NCI-H23) was > 67.3 µM (inactive), the GI50 (MDA-MB-435) was 24.5 µM (inactive) and the GI50 (SK-MEL-2) was > 100 µM (inactive). For the same compound, the GI50 (SF-295) was 55.6 µM (inactive), the GI50 (Malme-3M) was > 49 µM (inactive) and the GI50 (HT-29) was 46.7 µM (inactive). The GI50 (OVCAR-5) was > 100 µM (inactive), the GI50 (786-0) was 44.9 µM (inactive) and the GI50 (BT-549) was 52.2 µM (inactive). The GI50 (CAKI-1) was 31 µM (inactive), the GI50 (M14) was > 54.1 µM (inactive) and the GI50 (SK-MEL-28) was 66.7 µM (inactive). The GI50 (NCI/ADR-RES) was > 39 µM (inactive), the GI50 (SK-OV-3) was > 70.6 µM (inactive) and the GI50 (NCI-H522) was 15.2 µM (inactive). The GI50 (U-251) was 50.1 µM (inactive), the GI50 (DU-145) was > 52.6 µM (inactive) and the GI50 (SR) was 4.43 µM (inactive). The GI50 (LOX IMVI) was 39.4 µM (inactive), the GI50 (SN12C) was 40.6 µM (inactive) and the GI50 (PC-3) was > 61 µM (inactive). For the same compound, the GI50 (EKVX) was 38.4 µM (inactive), the GI50 (T47D) was 30.1 µM (inactive) and the GI50 (MDA-MB-231) was > 79.8 µM (inactive). For the same compound, the GI50 (A498) was 37.3 µM (inactive) and the GI50 (MOLT-4) was 27.5 µM (inactive).
